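These data come from cells grown in 96-well plates and exposed to compound for 48 hours at five concentrations. GI50 = concentration required for 50% inhibition of growth.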 The source made the active and inactive calls. Cut-off read from the data, not from the text of the source: active = GI50 up to about 1.1 µM and inactive = higher.
Legend:
Test in all cases: inhibition of tumour cell growth, NCI panel, 48 h
HL-60 = system: HL-60
U-251 = system: U-251
EKVX = system: EKVX
786-0 = system: 786-0
MOLT-4 = system: MOLT-4
HCT-15 = system: HCT-15
RXF 393 = system: RXF 393
DU-145 = system: DU-145
Hs-578T = system: Hs-578T
UO-31 = system: UO-31
SF-268 = system: SF-268
HCT-116 = system: HCT-116
HCC 2998 = system: HCC 2998
NCI-H460 = system: NCI-H460
MCF7 = system: MCF7
SK-MEL-5 = system: SK-MEL-5
ACHN = system: ACHN
SNB-75 = system: SNB-75
A549 = system: A549
BT-549 = system: BT-549

Structure (SMILES)	GI50 (HL-60)	GI50 (U-251)	GI50 (EKVX)	GI50 (786-0)	GI50 (MOLT-4)	GI50 (HCT-15)	GI50 (RXF 393)	GI50 (DU-145)	GI50 (Hs-578T)	GI50 (UO-31)	GI50 (SF-268)	GI50 (HCT-116)	GI50 (HCC 2998)	GI50 (NCI-H460)	GI50 (MCF7)	GI50 (SK-MEL-5)	GI50 (ACHN)	GI50 (SNB-75)	GI50 (A549)	GI50 (BT-549)
Oc1ccc(-c2cn3cc(C(F)(F)F)ccc3n2)cc1	9.18 µM (inactive)	41.1 µM (inactive)	56.2 µM (inactive)	30.7 µM (inactive)	26.5 µM (inactive)	35.6 µM	31.6 µM (inactive)	30.6 µM (inactive)	> 100 µM (inactive)	61.5 µM (inactive)	89.1 µM (inactive)	49.1 µM (inactive)	22.1 µM (inactive)	32.1 µM (inactive)	26.7 µM (inactive)	32.1 µM (inactive)	12.1 µM (inactive)	6.84 µM (inactive)	44.8 µM (inactive)	56.4 µM (inactive)
Clc1ccc(-c2noc(CN3CCCCC3)n2)cc1	85.9 µM (inactive)	> 100 µM (inactive)	54 µM (inactive)	> 100 µM (inactive)	49.7 µM (inactive)	> 100 µM	44 µM (inactive)	> 100 µM (inactive)	> 100 µM (inactive)	> 100 µM (inactive)	> 100 µM (inactive)	90.2 µM (inactive)	58.9 µM (inactive)	> 100 µM (inactive)	> 100 µM (inactive)	34 µM (inactive)	> 100 µM (inactive)	> 100 µM (inactive)	> 100 µM (inactive)	> 100 µM (inactive)
C=C1C(=O)OC2/C=C(\COC(C)=O)CCC(OC(C)=O)C3=CC(OC3=O)C12 (stereo not given)	2.23 µM (inactive)	12.2 µM (inactive)	11.7 µM (inactive)	6.56 µM (inactive)	1.58 µM (inactive)	2.94 µM	1.59 µM (inactive)	36.1 µM (inactive)	24.2 µM (inactive)	17.3 µM (inactive)	22.3 µM (inactive)	2.48 µM (inactive)	14.4 µM (inactive)	19.5 µM (inactive)	3.69 µM (inactive)	11.6 µM (inactive)	3.12 µM (inactive)	15.9 µM (inactive)	20 µM (inactive)	5.38 µM (inactive)
COP(=O)(/C=C/C(NC(=O)C(Cl)(Cl)Cl)c1ccccc1)OC (stereo not given)	> 100 µM (inactive)	> 100 µM (inactive)	> 100 µM (inactive)	> 100 µM (inactive)	> 100 µM (inactive)	> 100 µM	> 100 µM (inactive)	> 100 µM (inactive)	> 100 µM (inactive)	> 100 µM (inactive)	> 100 µM (inactive)	> 100 µM (inactive)	> 100 µM (inactive)	> 100 µM (inactive)	> 100 µM (inactive)	> 100 µM (inactive)	> 100 µM (inactive)	> 100 µM (inactive)	> 100 µM (inactive)	> 100 µM (inactive)
Cc1ccccc1NC(=O)CC(=O)NNC(Sc1ccccc1)c1cc(/N=N/c2ccc(Br)cc2)ccc1O (stereo not given)	0.277 µM (active)	2.64 µM (inactive)	5.02 µM (inactive)	0.551 µM (active)	0.332 µM (active)	0.836 µM	2.13 µM (inactive)	2.21 µM (inactive)	> 10 µM (inactive)	2.68 µM (inactive)	0.733 µM (active)	0.308 µM (active)	7.36 µM (inactive)	0.658 µM (active)	0.798 µM (active)	1.24 µM (inactive)	1.82 µM (inactive)	3.79 µM (inactive)	3.42 µM (inactive)	3.72 µM (inactive)
CCOC(=O)C(NC(=O)CC)(Nc1ccc(S(=O)(=O)Nc2ccc(OC)nn2)cc1)C(F)(F)F (stereo not given)	> 100 µM (inactive)	> 100 µM (inactive)	> 100 µM (inactive)	> 100 µM (inactive)	> 100 µM (inactive)	> 100 µM	> 100 µM (inactive)	> 100 µM (inactive)	> 100 µM (inactive)	> 100 µM (inactive)	> 100 µM (inactive)	> 100 µM (inactive)	27.4 µM (inactive)	> 100 µM (inactive)	> 100 µM (inactive)	> 100 µM (inactive)	> 100 µM (inactive)	> 100 µM (inactive)	> 100 µM (inactive)	> 100 µM (inactive)
CC1=C(C(=O)Nc2ccccc2)C(c2ccc(C3C(C(=O)Nc4ccccc4)=C(C)NC(C)=C3C(=O)Nc3ccccc3)cc2)C(C(=O)Nc2ccccc2)=C(C)N1	2.43 µM (inactive)	1.49 µM (inactive)	4.72 µM (inactive)	2.54 µM (inactive)	1.96 µM (inactive)	2.72 µM	1.91 µM (inactive)	> 10 µM (inactive)	2.88 µM (inactive)	9.27 µM (inactive)	2.2 µM (inactive)	2 µM (inactive)	2.47 µM (inactive)	2.67 µM (inactive)	2.86 µM (inactive)	2.26 µM (inactive)	2.04 µM (inactive)	8.2 µM (inactive)	8.05 µM (inactive)	2.55 µM (inactive)
CCCCCCOc1ccc(NC2=C(Cl)C(=O)c3c(O)ccc(O)c3C2=O)cc1	1.77 µM (inactive)	2.32 µM (inactive)	> 10 µM (inactive)	0.611 µM (active)	2.31 µM (inactive)	1.91 µM	2.32 µM (inactive)	5.9 µM (inactive)	3.35 µM (inactive)	2.2 µM (inactive)	6.22 µM (inactive)	1.6 µM (inactive)	1.8 µM (inactive)	1.01 µM (active)	0.414 µM (active)	1.31 µM (inactive)	3.16 µM (inactive)	4.06 µM (inactive)	3.27 µM (inactive)	3.25 µM (inactive)
CCOc1ccc(/C=C2\NC(=S)N(/C=C3\C(=O)Oc4ccccc4C3=O)C2=O)cc1	13.7 µM (inactive)	29 µM (inactive)	24.7 µM (inactive)	19.2 µM (inactive)	24.3 µM (inactive)	20.7 µM	3.84 µM (inactive)	22.4 µM (inactive)	23.4 µM (inactive)	24.1 µM (inactive)	22.2 µM (inactive)	19.5 µM (inactive)	32.1 µM (inactive)	21.4 µM (inactive)	17.8 µM (inactive)	19.7 µM (inactive)	25.5 µM (inactive)	23 µM (inactive)	> 10 µM (inactive)	23.6 µM (inactive)
Clc1ccc2oc(CCc3ccccc3)nc2c1	34.7 µM (inactive)	37.2 µM (inactive)	32.5 µM (inactive)	53.8 µM (inactive)	35.4 µM (inactive)	38.5 µM	24.9 µM (inactive)	48.1 µM (inactive)	> 100 µM (inactive)	62.7 µM (inactive)	87.9 µM (inactive)	36.2 µM (inactive)	27.4 µM (inactive)	59.2 µM (inactive)	38 µM (inactive)	20.3 µM (inactive)	47.2 µM (inactive)	17.8 µM (inactive)	36.6 µM (inactive)	49.5 µM (inactive)
O=C1c2c(Br)sc(Br)c2[C@@H](O)[C@H]1O	9.14 µM (inactive)	7.48 µM (inactive)	16.7 µM (inactive)	15.2 µM (inactive)	5.97 µM (inactive)	11.4 µM	16.2 µM (inactive)	16.4 µM (inactive)	23.1 µM (inactive)	17.1 µM (inactive)	10.8 µM (inactive)	16.8 µM (inactive)	20.1 µM (inactive)	17.2 µM (inactive)	17.1 µM (inactive)	18.4 µM (inactive)	18 µM (inactive)	15.4 µM (inactive)	20.9 µM (inactive)	17.9 µM (inactive)
CCN(CC)C(=S)SC1C(=O)NC(=O)NC1=O	> 100 µM (inactive)	> 100 µM (inactive)	> 100 µM (inactive)	> 100 µM (inactive)	> 100 µM (inactive)	> 100 µM	> 100 µM (inactive)	> 100 µM (inactive)	> 100 µM (inactive)	> 100 µM (inactive)	> 100 µM (inactive)	> 100 µM (inactive)	> 100 µM (inactive)	0.017 µM (active)	> 100 µM (inactive)	> 100 µM (inactive)	> 100 µM (inactive)	> 100 µM (inactive)	> 100 µM (inactive)	> 100 µM (inactive)
CCCCc1c2c(nc3c1CCCC3O)CCCC2 (stereo not given)	> 100 µM (inactive)	> 100 µM (inactive)	73.6 µM (inactive)	> 100 µM (inactive)	71 µM (inactive)	> 100 µM	> 100 µM (inactive)	> 100 µM (inactive)	> 100 µM (inactive)	> 100 µM (inactive)	> 100 µM (inactive)	> 100 µM (inactive)	> 100 µM (inactive)	> 100 µM (inactive)	> 100 µM (inactive)	> 100 µM (inactive)	80 µM (inactive)	> 100 µM (inactive)	> 100 µM (inactive)	> 100 µM (inactive)
O=C(NCc1ccccc1)c1nn[nH]c1O	> 100 µM (inactive)	> 100 µM (inactive)	> 100 µM (inactive)	> 100 µM (inactive)	> 100 µM (inactive)	> 100 µM	> 100 µM (inactive)	> 100 µM (inactive)	> 100 µM (inactive)	> 100 µM (inactive)	> 100 µM (inactive)	> 100 µM (inactive)	> 100 µM (inactive)	> 100 µM (inactive)	> 100 µM (inactive)	> 100 µM (inactive)	> 100 µM (inactive)	> 100 µM (inactive)	> 100 µM (inactive)	> 100 µM (inactive)
